Laboratory results taken from US12606561B2, “Substituted pyrazolo[1,5-a][1,3,5]triazines as CDK inhibitors” (QURIENT CO., LTD., priority 2018, dated 2026).

Columns and labels:
CDK5/p25 = biological target: T1, CDK5/p25 (Homo sapiens, UniProt Q00535); assay: Enzymatic assay for CDK5 (LANCE Ultra kinase assay, FRET based); format: biochemical; settings: ATP at Km
T1 construct: purchased Invitrogen PR8543B
Procedure: (§1) Enzymatic Binding Assay Protocol for CDK1, CDK2, CDK5 and CDK7
(§2) Inhibition activity of the respective compound on CDK kinase under Km value of ATP was tested in FRET based The LANCE® Ultra kinase assay (Perkin Elmer), which uses a ULight™-labeled peptide substrate and an appropriate Europium-labeled anti-phospho-antibody. Test compounds were made with DMSO solutions, and then 4-fold serial dilutions for 8 doses were prepared using automated liquid handler (POD™ 810, Labcyte) and 80 nL/well of diluted compound solutions were added into the 384-well plates (Greiner, Cat #784075). And then 68 nM of ULight-MBP peptide (Perkin Elmer, Cat #TRF0109-M) and 5 ul/well of ATP (Sigma, Cat #A7699) were added to the plate. After 1 min centrifugation at 1000 rpm, purified CDKs/Cyclin complex were added with the following concentrations respectively. 24 uM for CDK1/Cyclin B (Invitrogen, Cat #PR4768C), 22 uM for CDK2/Cyclin A (Invitrogen, Cat #PV6290), 10 uM for CDK5/p25 (Invitrogen, Cat #PR8543B) and […] for CDK7/Cyclin H/MNAT1 (Invitrogen, Cat #PR6749B) were added to each corresponding plate for CDK1, CDK2, CDK5 and CDK7. Incubate at 23° C. for 60 min and then Eu-labeled anti-phospho-Myelin Basic Protein (PE, Cat #TRF0201-M) and EDTA (Invitrogen, Cat #15575038) mixture in Lance Detection Buffer (Perkin Elmer, Cat #CR97100) was added in each well. After additional incubation at 23° C. for 60 min, test articles were measured the fluorescence using Envision leader (Perkin Elmer, USA) [Laser as excitation light; […] as the first and the second emission filter]. Data were analyzed using XL Fit software.

CDK7/Cyclin H/MNAT1 = biological target: T2, CDK7/Cyclin H/MNAT1 (Homo sapiens, UniProt P50613); assay: Enzymatic assay for CDK7 (LANCE Ultra kinase assay, FRET based); format: biochemical; settings: for IC50: ATP at Km
T2 construct: purchased Invitrogen PR6749B
Procedure: as §1
(§3) Inhibition activity of the respective compound on CDK kinase under Km value of ATP was tested in FRET based The LANCE® Ultra kinase assay (Perkin Elmer), which uses a ULight™-labeled peptide substrate and an appropriate Europium-labeled anti-phospho-antibody. […] After 1 min centrifugation at 1000 rpm, purified CDKs/Cyclin complex were added with the following concentrations respectively. […] Data were analyzed using XL Fit software.

CDK2/Cyclin A = biological target: T3, CDK2/Cyclin A (Homo sapiens, UniProt P24941); assay: Enzymatic assay for CDK2 (LANCE Ultra kinase assay, FRET based); format: biochemical; settings: ATP at Km
T3 construct: purchased Invitrogen PV6290
Procedure: as §1, §2

A2780 = A2780 viability assay (CellTiter-Glo, 72 hours); format: cell-based; settings: Homo sapiens; A2780 cells
Procedure: Human […] cell line, MV4-11_(ATCC, Cat #CRL-9591), NSCLC (Non-small cell lung cancer) cell line H460 (ATCC, Cat #HTB-177), A2780 (ECACC, Cat #93112519) and OVCAR-3(ATCC, Cat #HTB-161) were obtained from ATCC. Cells were grown in RPMI-1640 media (Invitrogen, Cat #22400-089) supplemented with 10% FBS (Invitrogen, Cat #10099141) and 1% penicillin/streptomycin (Invitrogen, Cat #15070063) and cultured at 37° C., 5% CO2 in a humidified chamber. All cell lines were routinely tested for mycoplasma.
To effect of the CDK7 inhibitor to inhibit the growth of target cancer cells, viability assay were conducted a 72 hour time period. Briefly, the candidate cell line was plated in 96 well plate at the following density of cells respectively. 1×10^4 cells/well for MV4-11, 5×10^3 for H460 and OVCAR-3, and 1×10^3 for A2780. After 24 hours, the cells were treated with various concentrations of the compound (ranging from 0.0015 uM to 10 uM). DMSO solvent without compound served as a control and final DMSO concentration lest than 0.1%. After 72 hours of incubation at 37° C., 5% CO2 incubator, cells were analyzed for the viability using the CellTiter-Glo Luminescent Cell Viability Assay (Promega, Cat #G7570). All viability assays were performed in duplicate and Luminescence was read using an Envision (Perkin Elmer, USA). Data was analyzed using XLfit software.

CDK1/Cyclin B = biological target: T4, CDK1/Cyclin B (Homo sapiens, UniProt P06493); assay: Enzymatic assay for CDK1 (LANCE Ultra kinase assay, FRET based); format: biochemical; settings: ATP at Km; read-out: CDK1 enzymatic activity IC50
T4 construct: purchased Invitrogen PR4768C
Procedure: as §1, §3

T2 sequence (P50613 whole entry): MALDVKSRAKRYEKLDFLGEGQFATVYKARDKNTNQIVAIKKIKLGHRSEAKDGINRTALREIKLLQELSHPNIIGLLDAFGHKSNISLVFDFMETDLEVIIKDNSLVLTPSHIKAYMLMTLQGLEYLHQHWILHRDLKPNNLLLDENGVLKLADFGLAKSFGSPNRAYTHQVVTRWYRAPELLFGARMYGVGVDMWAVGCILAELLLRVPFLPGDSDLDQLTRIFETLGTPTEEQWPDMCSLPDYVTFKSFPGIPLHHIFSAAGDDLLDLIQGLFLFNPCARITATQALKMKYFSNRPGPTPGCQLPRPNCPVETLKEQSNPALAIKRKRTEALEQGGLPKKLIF
T2 sequence (P51946 whole entry partner): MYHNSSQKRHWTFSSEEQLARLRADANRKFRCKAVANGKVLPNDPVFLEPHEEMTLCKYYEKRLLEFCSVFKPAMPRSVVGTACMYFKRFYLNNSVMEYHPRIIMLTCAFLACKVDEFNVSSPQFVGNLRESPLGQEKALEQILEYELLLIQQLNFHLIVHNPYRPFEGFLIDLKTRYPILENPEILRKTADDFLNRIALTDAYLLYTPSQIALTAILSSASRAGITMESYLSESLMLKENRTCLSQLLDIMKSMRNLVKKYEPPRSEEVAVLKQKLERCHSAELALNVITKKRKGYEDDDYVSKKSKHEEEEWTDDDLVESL
T2 sequence (P51948 whole entry partner): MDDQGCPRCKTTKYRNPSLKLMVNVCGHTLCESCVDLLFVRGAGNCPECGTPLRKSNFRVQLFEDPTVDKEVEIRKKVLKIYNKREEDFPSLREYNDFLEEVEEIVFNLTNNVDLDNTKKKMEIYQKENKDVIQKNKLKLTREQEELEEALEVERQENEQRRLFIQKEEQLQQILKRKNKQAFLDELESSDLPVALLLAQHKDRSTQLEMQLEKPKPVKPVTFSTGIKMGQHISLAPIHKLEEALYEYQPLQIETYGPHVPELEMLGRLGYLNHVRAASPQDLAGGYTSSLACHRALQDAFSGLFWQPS
T4 sequence (P06493 whole entry): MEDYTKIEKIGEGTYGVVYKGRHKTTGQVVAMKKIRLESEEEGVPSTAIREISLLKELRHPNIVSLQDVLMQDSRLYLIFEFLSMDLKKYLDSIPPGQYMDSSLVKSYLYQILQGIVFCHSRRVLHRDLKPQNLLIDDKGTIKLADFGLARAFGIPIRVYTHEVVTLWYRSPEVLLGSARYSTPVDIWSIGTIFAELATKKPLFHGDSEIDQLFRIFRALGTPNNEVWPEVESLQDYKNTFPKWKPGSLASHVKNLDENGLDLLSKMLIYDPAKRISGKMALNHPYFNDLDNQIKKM
T4 sequence (P14635 whole entry partner): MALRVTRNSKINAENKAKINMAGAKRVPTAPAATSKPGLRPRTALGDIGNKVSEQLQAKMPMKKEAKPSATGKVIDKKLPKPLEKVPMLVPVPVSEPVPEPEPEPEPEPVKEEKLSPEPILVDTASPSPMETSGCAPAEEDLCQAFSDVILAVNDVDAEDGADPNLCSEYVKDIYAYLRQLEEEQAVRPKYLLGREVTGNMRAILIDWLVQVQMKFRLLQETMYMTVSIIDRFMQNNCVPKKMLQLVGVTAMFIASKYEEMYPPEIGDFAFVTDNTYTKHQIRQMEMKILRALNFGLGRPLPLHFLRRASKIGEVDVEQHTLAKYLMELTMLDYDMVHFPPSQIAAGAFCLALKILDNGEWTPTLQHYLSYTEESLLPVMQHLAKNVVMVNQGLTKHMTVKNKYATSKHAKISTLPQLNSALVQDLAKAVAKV
T1 sequence (Q00535 whole entry): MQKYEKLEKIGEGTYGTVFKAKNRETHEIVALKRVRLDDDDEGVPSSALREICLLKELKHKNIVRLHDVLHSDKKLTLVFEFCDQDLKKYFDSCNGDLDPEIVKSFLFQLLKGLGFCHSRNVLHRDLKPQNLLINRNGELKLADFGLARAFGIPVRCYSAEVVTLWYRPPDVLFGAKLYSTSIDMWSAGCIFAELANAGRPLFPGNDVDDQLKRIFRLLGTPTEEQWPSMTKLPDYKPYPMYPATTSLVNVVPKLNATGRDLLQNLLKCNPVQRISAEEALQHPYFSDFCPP
T1 sequence (Q15078 99-307 partner limits assumed): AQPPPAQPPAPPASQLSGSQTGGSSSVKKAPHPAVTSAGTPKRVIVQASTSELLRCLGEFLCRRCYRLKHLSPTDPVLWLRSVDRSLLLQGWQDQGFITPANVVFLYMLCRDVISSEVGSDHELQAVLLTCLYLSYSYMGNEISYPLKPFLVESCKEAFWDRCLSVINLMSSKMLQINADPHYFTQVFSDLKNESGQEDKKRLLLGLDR

Structure (SMILES) | IC50 (CDK5/p25) | IC50 (CDK7/Cyclin H/MNAT1) | CDK1/CDK7: Selectivity of CDK7 inhibition over CDK1 inhibition (CDK7/Cyclin H/MNAT1) | CDK2/CDK7: Selectivity of CDK7 inhibition over CDK2 inhibition (CDK7/Cyclin H/MNAT1) | CDK5/CDK7: Selectivity of CDK7 inhibition over CDK5 inhibition (CDK7/Cyclin H/MNAT1) | IC50 (CDK2/Cyclin A) | IC50 (A2780) | IC50 (CDK1/Cyclin B)
C=CC(=O)N1CCc2c(ccnc2-c2ccccc2CNc2nc(OC3CCC(C)(C)NC3)nc3c(C(C)C)cnn23)C1 (stereo not drawn) [Compound 203] | > 1000 nM | < 100 nM | A (A indicates [fold] > 500) | A (A indicates [fold] > 500) | A (A indicates [fold] > 500) | > 1000 nM | < 1000 nM | > 1000 nM
CC(C)c1cnn2c(NCc3ccccc3-c3nccc4cc(NC(=O)/C=C/CN(C)C)ccc34)cc(N3CCNC(C(F)(F)F)C3)nc12 (stereo not drawn) [Compound 214] | > 1000 nM | < 100 nM | A (A indicates [fold] > 500) | A (A indicates [fold] > 500) | A (A indicates [fold] > 500) | > 1000 nM | < 1000 nM | > 1000 nM
C=C(C)C(=O)Nc1ccc2c(-c3ccccc3CNc3nc(OC4CCC(C)(C)NC4)nc4c(C(C)C)cnn34)nccc2c1 (stereo not drawn) [Compound 190] | > 1000 nM | < 100 nM | A (A indicates [fold] > 500) | A (A indicates [fold] > 500) | A (A indicates [fold] > 500) | > 1000 nM | < 1000 nM | > 1000 nM
CC(C)c1cnn2c(NCc3ccccc3-c3nccc4cc(NC(=O)/C=C/CN(C)C)ccc34)nc(S(C)(=O)=O)nc12 [Compound 202] | > 1000 nM | < 100 nM | B (B indicates 50 < [fold] ≤ 500) | B (B indicates 50 < [fold] ≤ 500) | B (B indicates 50 < [fold] ≤ 500) | > 1000 nM | < 1000 nM | > 1000 nM
C=C(C)C(=O)Nc1ccc2c(-c3ccccc3CNc3nc(Nc4cccnc4)nc4c(C(C)C)cnn34)nccc2c1 [Compound 207] | > 1000 nM | 100 to 1000 nM | B (B indicates 50 < [fold] ≤ 500) | B (B indicates 50 < [fold] ≤ 500) | B (B indicates 50 < [fold] ≤ 500) | > 1000 nM | < 1000 nM | > 1000 nM
C=C(Cl)C(=O)Nc1ccc2c(-c3ccccc3CNc3nc(NC[C@H]4CCNC[C@@H]4O)nc4c(C(C)C)cnn34)nccc2c1 [Compound 206] | > 1000 nM | < 100 nM | A (A indicates [fold] > 500) | A (A indicates [fold] > 500) | A (A indicates [fold] > 500) | > 1000 nM | < 1000 nM | > 1000 nM
CC(C)c1cnn2c(NCc3ccccc3-c3nccc4cc(NC(=O)/C=C/CN(C)C)ccc34)cc(C(F)(F)F)nc12 [Compound 204] | > 1000 nM | < 100 nM | A (A indicates [fold] > 500) | A (A indicates [fold] > 500) | A (A indicates [fold] > 500) | > 1000 nM | < 1000 nM | > 1000 nM
C=CC(=O)Nc1ccc2c(-c3ccccc3CNc3nc(-c4ccncc4)nc4c(C(C)C)cnn34)nccc2c1 [Compound 201] | > 1000 nM | < 100 nM | B (B indicates 50 < [fold] ≤ 500) | B (B indicates 50 < [fold] ≤ 500) | B (B indicates 50 < [fold] ≤ 500) | > 1000 nM | < 1000 nM | > 1000 nM
C=CC(=O)Nc1ccc2c(-c3ccccc3CNc3nc(N4CCN(CC(F)(F)F)CC4)nc4c(C(C)C)cnn34)nccc2c1 [Compound 210] | > 1000 nM | < 100 nM | B (B indicates 50 < [fold] ≤ 500) | B (B indicates 50 < [fold] ≤ 500) | B (B indicates 50 < [fold] ≤ 500) | > 1000 nM | < 1000 nM | > 1000 nM
C=CC(=O)Nc1ccc2c(-c3ccccc3CNc3cc(C)nc4c(C(C)C)cnn34)nccc2c1 [Compound 195] | > 1000 nM | < 100 nM | A (A indicates [fold] > 500) | A (A indicates [fold] > 500) | A (A indicates [fold] > 500) | > 1000 nM | < 1000 nM | > 1000 nM
C=CC(=O)Nc1ccc2c(-c3ccccc3CNc3cc(C(F)(F)F)nc4c(C(C)C)cnn34)nccc2c1 [Compound 198] | > 1000 nM | < 100 nM | B (B indicates 50 < [fold] ≤ 500) | B (B indicates 50 < [fold] ≤ 500) | B (B indicates 50 < [fold] ≤ 500) | > 1000 nM | < 1000 nM | > 1000 nM
C=CC(=O)Nc1ccc2c(-c3ccccc3CNc3nc(N4CCc5ncccc5C4)nc4c(C(C)C)cnn34)nccc2c1 [Compound 212] | > 1000 nM | < 100 nM | A (A indicates [fold] > 500) | A (A indicates [fold] > 500) | A (A indicates [fold] > 500) | > 1000 nM | < 1000 nM | > 1000 nM
C=CC(=O)Nc1ccc2c(-c3ccccc3CNc3nc(Nc4cccnc4)nc4c(C(C)C)cnn34)nccc2c1 [Compound 188] | > 1000 nM | < 100 nM | A (A indicates [fold] > 500) | A (A indicates [fold] > 500) | A (A indicates [fold] > 500) | > 1000 nM | < 1000 nM | > 1000 nM
C=C(C)C(=O)Nc1ccc2c(-c3ccccc3CNc3cc(C(F)(F)F)nc4c(C(C)C)cnn34)nccc2c1 [Compound 208] | > 1000 nM | 100 to 1000 nM | B (B indicates 50 < [fold] ≤ 500) | B (B indicates 50 < [fold] ≤ 500) | B (B indicates 50 < [fold] ≤ 500) | > 1000 nM | 1000 to 10000 nM | > 1000 nM
C=CC(=O)Nc1ccc2c(-c3ccccc3CNc3nc(N4CCNC(C(F)(F)F)C4)nc4c(C(C)C)cnn34)nccc2c1 (stereo not drawn) [Compound 211] | > 1000 nM | < 100 nM | A (A indicates [fold] > 500) | A (A indicates [fold] > 500) | A (A indicates [fold] > 500) | > 1000 nM | < 1000 nM | > 1000 nM
